EPA's ToxValDB 9.5
Several values for one entry are separate records, joined by “and”; a condition that tells them apart may be missing. Equal values may be shown once. Where a name gives a salt, the structure may show the parent alone.

Tested on: Rattus norvegicus
Settings: for LD50 / LC50: acute
[1] = repeat dose other, inhalation, Sprague-Dawley
[2] = subchronic, duration: 3 months, inhalation, Sprague-Dawley
[3] = chronic, duration: 16 weeks, oral, diet, Wistar

CC(C)CC(C)OC(=O)/C=C\C(=O)OC(C)CC(C)C (stereo not given) [Bis(1,3-dimethylbutyl) maleate]
LD50 (oral, gavage, Wistar): 7460 mg/kg

CC(=O)C(N=Nc1ccc(-c2ccc(N=NC(C(C)=O)C(=O)Nc3ccccc3)c(Cl)c2)cc1Cl)C(=O)Nc1ccccc1 (stereo not given) [C.I. Pigment Yellow 12]
NOAEL (reproduction developmental, oral, gavage, Wistar, generation: F0): 1000 mg/kg-day | NOAEL (reproduction developmental, oral, gavage, Wistar, generation: F1): 1000 mg/kg-day

CC(=O)C(=NNc1ccc(-c2ccc(NN=C(C(C)=O)C(=O)Nc3ccc(C)cc3C)c(Cl)c2)cc1Cl)C(=O)Nc1ccc(C)cc1C [C.I. Pigment Yellow 13]
NOAEL (chronic, oral, gavage): 500 mg/kg-day

CCCCCCCCCCCCOCCOCCOS(=O)(=O)[O-].[Na+] [Diethylene glycol monolauryl ether sulfate sodium salt]
LD50 (oral, gavage, Sprague-Dawley): > 5000 mg/kg

CC(C)OC(=O)CCCCC(=O)OC(C)C [Diisopropyl adipate]
LD50 (oral): > 15000 mg/kg

CCCCCCCCCCCCCCN(C)C [Dimethyl(tetradecyl)amine]
LD50 (oral, gavage): 2120 mg/kg | LD50 (oral, gavage, Wistar): 1320 mg/kg

c1ccc(Oc2ccccc2)cc1 [Diphenyl oxide]
LD50 (oral, gavage, Sprague-Dawley): 2450 mg/kg | NOAEL (developmental, duration: 10 days, oral, gavage, Sprague-Dawley): ≥ 500 mg/kg-day | NOAEL (reproduction developmental, duration: 10 days, oral, gavage, F, Sprague-Dawley): ≥ 50 mg/kg-day | NOAEL (subchronic, duration: 13 weeks, oral, diet, Sprague-Dawley): > 480 mg/kg-day

CCCCCCCCCCCOC(=O)c1ccccc1C(=O)OCCCCCCCCCCC [Diundecyl phthalate]
NOAEL (short-term, duration: 21 days, oral, diet, Fischer 344): 282 mg/kg-day

O=C(OCCOCCOCCOC(=O)c1ccccc1)c1ccccc1 [Ethylenebis(oxyethylene) dibenzoate]
LD50 (dermal, Sprague-Dawley): > 2000 mg/kg | LD50 (oral, Sprague-Dawley): 4190 mg/kg and 3540 mg/kg and 4840 mg/kg | NOAEL (developmental, duration: 14 days, oral, gavage, Sprague-Dawley): 1000 mg/kg-day | NOAEL (subchronic, duration: 13 weeks, oral, diet, F): 1000 mg/kg-day | NOAEL (subchronic, duration: 13 weeks, oral, diet, M): 1000 mg/kg-day

Fc1ccccc1 [Fluorobenzene]
LC50 (inhalation): 26900 mg/m3 | NOAEL (short-term, duration: 28 days, inhalation, F, Sprague-Dawley): 0.37 mg/L | NOAEL (short-term, duration: 28 days, inhalation, M, Sprague-Dawley): 0.37 mg/L

CCCCCCC(C)OC(=O)CCCCC(=O)OC(C)CCCCCC (stereo not given) [Hexanedioic acid, bis(1-methylheptyl) ester]
LD50 (oral, gavage): > 64000 mg/kg

CCCCCCCCCCCCCCCCCC(=O)[O-].[Li+] [Lithium octadecanoate]
LC50 (oral): ≥ 5000 mg/kg and ≤ 15000 mg/kg

CS [Methanethiol]
LC50 (inhalation, Sprague-Dawley): 1330 mg/m3 and ≥ 1260 mg/m3 and ≤ 1390 mg/m3 | LC50 (inhalation, WBS/W): 3310 mg/m3 and ≥ 2810 mg/m3 and ≤ 3900 mg/m3 | LOAEL [1]: 112 mg/m3 | NOAEL [1]: 33.4 mg/m3 | LOAEL [2]: 112 mg/m3 | NOAEL [2]: 33.4 mg/m3

CCCCCCCCCCCCCCCCN(C)C [N,N-Dimethyl-1-hexadecanamine]
LD50 (oral, gavage): 1020 mg/kg | LD50 (oral, gavage, Sprague-Dawley): > 2000 mg/kg

O=P(O)(O)c1ccccc1 [Phenylphosphonic acid]
LD50 (dermal, occlusive, Crl:CD(SD) BR): > 2000 mg/kg

CCCCOP(=O)(O)OCCCC [Phosphoric acid, dibutyl ester]
NOAEL (subchronic, oral, gavage, Sprague-Dawley): 30 mg/kg-day

CCCCCCCC/C=C\CCCCCCCC(=O)OC[C@@H](O)[C@H]1OC[C@H](O)[C@H]1O [Sorbitan, mono-(9Z)-9-octadecenoate]
LD50 (oral, gavage): > 39800 mg/kg | LD50 (oral, gavage, Wistar): > 39800 mg/kg | LOAEL (% diet) [3]: 2.5 | NOAEL [3]: 1700 mg/kg-day | NOAEL (chronic, oral, diet): 1450 mg/kg-day | NOAEL (% diet) (chronic, oral, diet): 2.5

c1ccc(-c2cccc(-c3ccccc3)c2)cc1 [Terphenyl]
LC50 (oral, gavage, Sprague-Dawley): > 5000 mg/kg

CC(O)CN(CC(C)O)CC(C)O (stereo not given) [Triisopropanolamine]
LD50 (oral, gavage, Wistar): 6500 mg/kg | NOAEL (chronic, duration: 102 weeks, oral, diet, Wistar): > 1220 mg/kg-day | NOAEL (developmental, duration: 6 days, oral, gavage, Wistar): ≥ 1000 mg/kg-day | NOAEL (reproduction developmental, duration: 6 days, oral, gavage, F, Wistar): 400 mg/kg-day

CCCCCCCCCCCC#N [n-Undecyl cyanide]
LD50 (oral): > 3400 mg/kg
